From patent US9326507B2, “Pheromone composition for treating Varroa mite infestation” (Universitaet Hohenheim, priority 2013, dated 2016)

Test system: male Varroa mites
Experiment: mating bioassay: male response to a female deutochrysalis dummy
Format: in vivo, Varroa destructor
Details: pure substances tested at 1, 10, 100 and 1000 ng
Method: Male and female Varroa mites were obtained from brood combs of heavily infested Apis mellifera colonies at the Apicultural State Institute, University of Hohenheim in Germany. Sexually mature males and freshly molted adult females as well as female deutochrysalis were collected from brood cells 8 to 9 days after capping. Female deutochrysales and freshly molted adult female mites were transferred into queen cell cups (Nicot System®, Karl Jenter, Metzingen) and kept at 28-30° C. for a maximum of 2 hours in order to prevent a decrease in vitality and mobility.
The responses of male Varroa mites to extracts, fractions, and pure substances were measured by using the “mating bioassay”: total extracts, fractions and pure substances were applied to a piece of filter paper (size: 1.5 mm×15 mm) with a 10 μl Hamilton syringe. The filter paper was folded in the middle and placed at the edge of the plastic cell cups (Nicot System®, Karl Jenter, Metzingen, 9 mm inner diameter) that served as a test arena. A living female deutochrysalis was placed at the bottom of the cell cup at 3.5 mm distance to the filter paper. […] After three tests, the dummies were replaced by new ones. The male responses towards the deutochrysalis were categorized as follows: (1) movement towards/around the deutochrysalis and palpating it, (2) mounting the dorsum of the deutochrysalis and (3) copulation attempts on the venter of the deutochrysalis. The duration of each of these behaviours was recorded over a period of 5 minutes using the Observer 2.0 software (Noldus Information Technology). All tests were performed at temperatures of 33-34° C. at the bottom of the test arena.
The extract was applied to the filter paper in doses of 2 female equivalents; in control tests the filter paper was treated with ether only. Pentane and ether fractions were tested in concentrations of 5 female equivalents in the same way. The higher concentration was applied in order to equalize possible losses of active substances during the column fractionation. Single substances that were identified from the active fraction (see 2.6) were purchased (Sigma Aldrich, GC grade), dissolved in diethyl ether and were tested in doses of 1 ng, 10 ng, 100 ng and 1000 ng.
Behavioural data were analyzed with the SPSS 15.0 statistics software. One Way ANOVA was performed to evaluate the male response toward the female deutochrysalis while being exposed to total extracts, fractions or pure substances. Differences between groups with p<0.05 were considered statistically significant.

SMILES | copulatory responses / male mating behaviour to pure substances | dosage of maximum copulatory responses [ng] | dosage of lowest copulatory responses [ng]
CCCCCCCC/C=C\CCCCCCCC(=O)OCC [ethyl oleate] | the same trend was evident, albeit without significant differences | – | –
CCCCCCCCCCCCCCCCCC(=O)O [stearic acid] | lower compared to the other compounds | 1 | –
CCCCCCCCCCCCCCCCCC(=O)OCC [ethyl stearate] | – | 10 | –
CCCCCCCCCCCCCCCC(=O)OCC [ethyl palmitate] | – | 10 | –
CCCCCCCCCCCCCCCC(=O)O [palmitic acid] | – | 10 | –
CCCCCCCC/C=C\CCCCCCCC(=O)O [oleic acid] | highest copulatory responses | 10 | 1000
